{"source": "patent US20220096431A1", "about": "“PHARMACEUTICAL COMPOSITION AND METHOD FOR PREVENTING, TREATING AND DIAGNOSING A NEURODEGENERATIVE DISEASE” (BUDDHIST TZU CHI MEDICAL FOUNDATION, priority 2020, published 2022)", "key": {"[1]": {"tested_on": "NICD, Aβ1-42 and PSEN1 in iPSC-derived human neurons", "assay": "Western blot of NICD, Aβ1-42 and PSEN1 in iPSC-derived human neurons", "format": "cell-based", "conditions": "100 μM n-BP, 48 h", "protocol": "Because the Notch intracellular domain (NICD) is most relevant to the development of AD drugs, western blot analysis was conducted to explore the effect of 100 μM n-BP-induced inhibition of Notch cleavage in iPSC-derived human neurons and on the expressions of miR-29b-2-5p and PSEN1. […] The change in the expressions of miR-29b-2-5p, PSEN1, and Aβ1-42 was therefore consistent with those observed in n-BP-treated Ts-21 iPSCs."}, "[2]": {"tested_on": "miR-29b-2-5p expression in C6-C99 cells", "assay": "RT-qPCR of miR-29b-2-5p/miR-9-5p in C6-C99 cells", "format": "cell-based", "conditions": "100 μM n-BP", "protocol": "Then, C6-C99 cells were used to explore the effect of 100 μM n-butylidenephthalide (n-BP) on the expressions of miR-29b-2-5p, PSEN1, and Aβ1-42. […] Also shown in FIGS. 4G to 4I are the results of using miR-29b-2-5p inhibitor to evaluate whether n-BP inhibited PSEN1 and Aβ1-42 expression through miR-29b-2-5p. Specifically, miR-29b-2-5p inhibitor was transfected into C6-C99 cells and examined the inhibitory effect of n-BP treatment on PSEN1 and Aβ1-42 expression. It was observed that the addition of the miR-29b-2-5p inhibitor to C6-C99 cells abolished the 100 μM n-BP induced decrease in PSEN1 and Aβ1-42 expression."}}}
{"smiles": "CCCC=C1OC(=O)c2ccccc21", "note": "[n-BP, n-butylidenephthalide]", "values": [{"measurement": "Aβ1-42 protein expression", "setting": "[1]", "value": "35.02%±24.39%"}, {"measurement": "Expression of proteins in NICD", "setting": "[1]", "value": "no change"}, {"measurement": "PSEN1 protein expression", "setting": "[1]", "value": "65.94%±4.52%"}, {"measurement": "miR-29b-2-5p expression", "setting": "[2]", "value": "358.95%±24.74%"}]}
